In patent US20260217765A1, “NOVEL ANTIMICROBIAL PEPTIDE DESIGNED FROM DUCK-DERIVED ANTIMICROBIAL PEPTIDE ANDUSE THEREOF” (INDUSTRY-ACADEMIC COOPERATION FOUNDATION, CHOSUN UNIVERSITY, priority 2023, published 2026):
Peptide text beside a SMILES is read from it.

Assays:
sheep red blood cells = type: cell-based
Method: To evaluate the cytotoxicity of the peptides prepared in <Example 1>, their hemolytic activity against red blood cells was measured. Hemolysis refers to the rupture of red blood cells with the release of hemoglobin into the surrounding fluid. The cytotoxicity of the novel peptides of the present disclosure was assessed by measuring their hemolytic activity against erythrocytes.
Specifically, sheep red blood cells were diluted with PBS (pH 7.0) to a final concentration of 8%. The peptides dCATH, dCATH-A1, dCATH-A2, dCATH-A3, dCATH-A4, dCATH-A5, dCATH-A6, and dCATH-A7 were each added to the wells at concentrations of 3.13, 6.25, 12.5, 25.0, 50.0, and 100.0 μM/well and reacted at 37° C. for 1 hour. Thereafter, the samples were centrifuged at 1, 000×g, and the absorbance of hemoglobin in the supernatant was measured at 414 nm. As a control for complete cell lysis, 1% Triton X-100 (Sigma, USA) was used and incubated under the same conditions. The absorbance of this sample was set to represent 100% hemolysis, and hemolytic activity (%) for each peptide was calculated using the following Equation 1.
In the above equation, Absorbance A is the absorbance at 414 nm of the reaction solution treated with each peptide, Absorbance B is the absorbance at 414 nm of the PBS-treated reaction solution, and Absorbance C is the absorbance at 414 nm of the reaction solution treated with 1% Triton X-100.

[1] = tested on: Acinetobacter baumannii isolate 10; test: In vivo antimicrobial activity, intranasal lung infection, H&E staining; design: species or system BALB/c mice; details: mice intranasally infected with A. baumannii isolate 10, peptide intranasal, day 3
Method: Among the peptides prepared in <Example 1>, dCATH-A7 was selected to evaluate in vivo antimicrobial activity.
Among the antibiotic-resistant strains, Acinetobacter baumannii isolate 10 was selected for the experiment. The bacteria were washed three times with PBS buffer prior to use. After a one-week acclimation period, BALB/c mice (6 weeks old) were intranasally infected with 20 μL of a 1×10^9 CFU/mL bacterial suspension. Following infection, the peptide was prepared at a concentration of 5 mg/mL and administered intranasally. On day 3, lung tissue samples were collected and subjected to hematoxylin and eosin (H&E) staining to assess tissue damage.

## CC[C@H](C)[C@H](NC(=O)[C@H](C)NC(=O)[C@H](CCCCN)NC(=O)[C@H](CCCCN)NC(=O)[C@@H](NC(=O)[C@H](CC(C)C)NC(=O)[C@H](CCC(N)=O)NC(=O)[C@H](C)NC(=O)[C@H](C)NC(=O)[C@H](CCCNC(=N)N)NC(=O)[C@@H](N)CCCCN)C(C)C)C(=O)N[C@@H](CCCCN)C(=O)N[C@@H](CCCCN)C(=O)N[C@@H](Cc1ccc(O)cc1)C(=O)N[C@@H](CCCNC(=N)N)C(=O)N[C@@H](C)C(=O)N[C@@H](Cc1c[nH]c2ccccc12)C(=O)N[C@@H](CCCCN)C(=O)N[C@@H](CCCNC(=N)N)C(=O)N[C@@H](CCCNC(=N)N)C(N)=O [dCATH-A6] (H-KRAAQLVKKAIKKYRAWKRR-NH2; N-terminus assumed)
Sheep red blood cells
  hemolytic activity at concentrations corresponding to antimicrobial activity: no hemolytic activity

## CC[C@H](C)[C@H](NC(=O)[C@H](C)NC(=O)[C@H](CCCCN)NC(=O)[C@H](CCCCN)NC(=O)[C@@H](NC(=O)[C@H](CC(C)C)NC(=O)[C@H](CCC(N)=O)NC(=O)[C@H](C)NC(=O)[C@H](C)NC(=O)[C@H](CCCNC(=N)N)NC(=O)[C@@H](N)CCCCN)C(C)C)C(=O)N[C@@H](CCCCN)C(=O)N[C@@H](CCCCN)C(=O)N[C@@H](Cc1ccc(O)cc1)C(=O)N[C@@H](CCCNC(=N)N)C(=O)N[C@@H](C)C(=O)N[C@@H](Cc1c[nH]c2ccccc12)C(=O)N[C@@H](CCCCN)C(N)=O [dCATH-A7, KRAAQLVKKAIKKYRAWK] (H-KRAAQLVKKAIKKYRAWK-NH2; N-terminus assumed)
Sheep red blood cells
  hemolytic activity at concentrations corresponding to antimicrobial activity: no hemolytic activity
[1]
  lung tissue damage (H&E staining): minimal fibrosis and overall reduced tissue damage
